Measurements reported in patent publication US20240316144A1, “PHARMACEUTICAL COMPOSITION AND METHOD FOR INHIBITING ANGIOGENESIS” (ZIH YUAN TANG Biotechnology Co, Ltd., priority 2023, published 2024).

Columns and labels:
[1] = test system: retinal sublayer structure; experiment: SD-OCT damage score of the retinal sublayer structure after laser injury in mice, vitreous injection; type: in vivo, C57BL/6 mice; details: for SD-OCT quantified values, difference to other groups: p<0.01 (FIG. 3D)
Protocol: (§1) Beauvericin (BEA), named GYT088 in this trail, was supplied by Shiyuantang Biotechnology Co. 5 mg of BEA (molecular weight 783.96) was dissolved in DMSO at a stock concentration of 50 mM, and then diluted to 100 μM with saline. Before injection, the sample was diluted to 1.6, 3.2, and 6.4 μM in saline, and then administered to the low, medium, and high-dose groups, which were equivalent to 1.28, 2.56, and 5.12 ng/eye, respectively, based on a vitreous volume of 4 μl in mice (wherein the injection volume is 1 μl); converted to the human doses of 1.28, 2.56, 5.12 μg/eye as the low, medium and high dose levels, respectively, based on a vitreous volume of 4-4.5 ml in human.
(§2) Male C57BL/6 mice from BioLASCO Taiwan CO., Ltd. at 7-8 weeks of age, with an average body weight of 17-20 g, were used in this study. The mice were housed in the Animal Room of the National Taipei Medical University for more than 5 days before the start of the experiment. The incubation temperature was set at 23±1° C., the humidity was set at 39˜43%, and the automated light control system maintained 12 hours of light and 12 hours of darkness. The feed was Rodent diet 5001 (Purina, MO, USA) and drinking water was supplied indefinitely.
(§3) After the adaptation period, the retina was cauterized with laser light (day 0), and the degree of retinal damage was confirmed by fundus photography (FP), fluorescein fundus angiography (FFA), and frequency-domain optical […] (SD-OCT) on the same day (FIG. 1). The mice were randomly divided into five groups and given vitreous injections of the corresponding drugs, including (1) control group, (2) positive control group: Eylea (40 μg/eye/μL), (3-5) GYT088 treatment groups at low-dose (1.28 ng/eye), medium-dose (2.56 ng/eye), and high-dose ([…]). Five mice in each group were clinically observed daily, and retinal injury repair was examined at Day 7 and Day 14.
The OCT (Phoenix Research Laboratories, San Ramon, CA) imaging system used in this experiment is based on the principle of frequency-domain optical homodyne tomography. The computerized tomography (CT) scan was divided into three layers: the first layer was from the nerve fiber layer (NFL) to the inner nuclear layer (INL), the second layer was from the INL to the inner segment/outer segment (IS/OS), and the third layer was from the IS/OS to the retinal pigment epithelium (RPE). The damage was scored according to the retinal sublayer structure in a double-blind trail, and the mean value of the scores was taken as the index value of the damage after each score was made by 3 persons.

[2] = test system: laser-induced angiogenesis; experiment: Fundus fluorescein angiography (FFA) of laser-induced choroidal neovascularization in mice, vitreous injection; type: in vivo, C57BL/6 mice; details: for angiogenesis index (relative average fluorescence leakage ratio vs Day 0): vitreous injection, mean±S.E.M.; for FFA quantified values, difference to other groups: Eylea 40 μg/eye/μL, p<0.01 (FIG. 2D)
Protocol: as §1, §2, §3
Mice were deeply anesthetized and pupils were dilated. A Micron III retinal imaging microscope (Phoenix, San Ramon, CA, USA) was used to adjust the focal length, and the central socket of the mice was placed in the center of the fundus lens to capture fundus photography (FP), and then 10% sodium fluorescein solution was injected intraperitoneally, and retinal angiography was performed with a 520 nm filter to capture continuous images for analysis. After the administration of drugs, the FP, FFA, and SD-OCT results were observed once a week at Day 0 and recorded until Day 14. Sharp images were selected for analysis and imported into […] using ImageJ, and the software automatically quantified the pixel value and area of the fundus region by removing the background values. Due to differences in individual retinal structures, post-laser wound healing varies and overexposure of signals in the area may occur. If fluorescence leakage occurs outside of the location of direct laser damage, it is considered to be a phenomenon of fundus neovascularization. Therefore, the quantification was performed by randomly selecting three fixed areas of the fluorescence leakage area that were not laser-damaged areas.

Which results are given for `CC(C)[C@H]1OC(=O)[C@H](Cc2ccccc2)N(C)C(=O)[C@@H](C(C)C)OC(=O)[C@H](Cc2ccccc2)N(C)C(=O)[C@@H](C(C)C)OC(=O)[C@H](Cc2ccccc2)N(C)C1=O` [GYT088, beauvericin]?
damage score compared with control group ([1]; Day 14, high-dose 5.12 ng/eye, vitreous injection): significantly lower than control group; SD-OCT quantified values, difference to other groups ([1]; Day 14, low-dose 1.28 ng/eye): significant difference; SD-OCT quantified values, difference to other groups ([1]; Day 14, mid-dose 2.56 ng/eye): significant difference; angiogenesis index (relative average fluorescence leakage ratio vs Day 0) ([2]; Day 7, high-dose 5.12 ng/eye, p<0.05): 1.53±0.17 times; angiogenesis index (relative average fluorescence leakage ratio vs Day 0) ([2]; Day 7, low-dose 1.28 ng/eye): 1.92±0.21 times; angiogenesis index (relative average fluorescence leakage ratio vs Day 0) ([2]; Day 7, medium-dose 2.56 ng/eye): 1.59±0.22 times; angiogenesis index (relative average fluorescence leakage ratio vs Day 0) ([2]; Day 14, high-dose 5.12 ng/eye, p<0.01): 1.63±0.16 times; angiogenesis index (relative average fluorescence leakage ratio vs Day 0) ([2]; Day 14, low-dose 1.28 ng/eye): 2.46±0.18 times; angiogenesis index (relative average fluorescence leakage ratio vs Day 0) ([2]; Day 14, medium-dose 2.56 ng/eye, p<0.01): 1.79±0.17 times

Which “damage score (scale 0-4)” value ([1]; Day 7, Eylea 40 μg/eye/μL, vitreous injection, control 1.38±0.17) does the source give for “Eylea: positive control group: Eylea (40 μg/eye/μL), vitreous injection [reference compound]” here?
The value was 0.80±0.13.

What about the “SD-OCT quantified values, difference to other groups” value ([1]; Day 14, Eylea 40 μg/eye/μL) of the same molecule?
Its value is “significant difference”.

And the “FFA quantified values, difference to other groups” value ([2]; Day 7)?
Its value is “significant difference”.

And the “FFA quantified values, difference to other groups” value ([2]; Day 14)?
Its value is “significant difference”.
